Results on ten molecules are retold here after PubChem BioAssay (NCI).

Some test systems named below: HOP-92 NSCLC; NCI/ADR-RES ovarian; RPMI-8226 leukemia; T-47D breast; SF-295 CNS; SW-620 colon; HCC-2998 colon; SF-539 CNS; MDA-MB-231 breast; M14 melanoma.
Holding throughout (experiment): DTP human tumour cell line panel, 48 h

One may read the GI50 as the concentration giving 50% growth inhibition. The TGI is the concentration giving total growth inhibition. Low values mean greater sensitivity of the cells, high ones lower sensitivity of the cells.

Each structure is given as a SMILES string. Where “and” joins values, the source holds several entries; their conditions need not be identical. Identical values can stand only once.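 Five concentrations, 48 hours, 96-well plates. GI50: concentration for 50% inhibition of growth. TGI: total growth inhibition.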 Some results are limits rather than exact numbers.

With `COc1ccc(Cn2cc3c(c2-c2cc(OC)c(OC)c(OC)c2)CCc2c(CO)noc2-3)cc1`, the GI50 in the assay on HOP-92 NSCLC was 2.97 µM; with NCI/ADR-RES ovarian, 0.294 µM; in the assay on RPMI-8226 leukemia, 0.41 µM; with T-47D breast, 0.376 µM; in the assay with SF-295 CNS it was 0.225 µM; in the assay with SW-620 colon, 0.381 µM. In addition, the GI50 in the assay with HCC-2998 colon is 1.08 µM; in the assay with SF-539 CNS it was 0.213 µM; in the assay with MDA-MB-231 breast it was 0.629 µM; in the assay on M14 melanoma it was 0.215 µM. Besides, the TGI in the assay on HOP-92 NSCLC is 22.2 µM; with NCI/ADR-RES ovarian, more than 57 µM; in the assay on RPMI-8226 leukemia, 13.6 µM; in the assay on T-47D breast it was 59.3 µM; with SF-295 CNS, 15.2 µM; in the assay on SW-620 colon it was more than 100 µM. Further, the TGI with HCC-2998 colon turned out to be 19.2 µM; in the assay with SF-539 CNS, 0.658 µM; in the assay on MDA-MB-231 breast, 19 µM; with M14 melanoma it was 2.88 µM.

Take `Cc1ccsc1-c1ccc2c(c1)COC2(CCCN(C)C)c1ccc(F)cc1` (stereo not given): the GI50 with HOP-92 NSCLC was 1.76 µM; in the assay on NCI/ADR-RES ovarian, 3.83 µM; in the assay with RPMI-8226 leukemia, 2.12 µM; with T-47D breast, 2.15 µM; in the assay on SF-295 CNS, 1.77 µM; in the assay on SW-620 colon, 1.78 µM. Moreover, the GI50 in the assay with HCC-2998 colon was 1.71 µM; in the assay with SF-539 CNS, 1.8 µM; in the assay with MDA-MB-231 breast it was 1.84 µM; with M14 melanoma, 1.73 µM. Further, the TGI with HOP-92 NSCLC was found to be 7.44 µM; with NCI/ADR-RES ovarian, 15.2 µM; in the assay with RPMI-8226 leukemia, 4.88 µM; in the assay with T-47D breast, 6.92 µM; in the assay on SF-295 CNS, 3.58 µM; with SW-620 colon, 3.75 µM. In addition, the TGI in the assay on HCC-2998 colon was found to be 3.25 µM; in the assay on SF-539 CNS, 3.4 µM; with MDA-MB-231 breast it was 6 µM; in the assay on M14 melanoma it was 3.46 µM.

For the molecule `Cc1cccc(Cl)c1NC(=O)c1cnc(Nc2cc(N3CCOCC3)cc(S(C)(=O)=O)c2)s1`, the GI50 in the assay with HOP-92 NSCLC is 0.0294 µM; with NCI/ADR-RES ovarian it was 9.94 µM; with RPMI-8226 leukemia it was more than 10 µM; with T-47D breast, 0.292 µM; in the assay on SF-295 CNS it was more than 4.23 µM; with SW-620 colon, more than 10 µM. Besides, the GI50 with HCC-2998 colon is more than 2.53 µM; in the assay with SF-539 CNS, 0.306 µM; with MDA-MB-231 breast, 0.141 µM; in the assay on M14 melanoma, 4.01 µM. For the same molecule, the TGI in the assay on HOP-92 NSCLC is 0.303 µM; in the assay on NCI/ADR-RES ovarian, more than 10 µM; with RPMI-8226 leukemia it was more than 10 µM; in the assay with T-47D breast, more than 10 µM; with SF-295 CNS, more than 10 µM; with SW-620 colon it was more than 10 µM. The TGI in the assay on HCC-2998 colon is more than 10 µM; in the assay on SF-539 CNS it was more than 10 µM; in the assay with MDA-MB-231 breast, more than 3.4 µM; in the assay with M14 melanoma it was more than 10 µM.

Regarding `COc1ccc(-c2cn(-c3cc(OC)c(OC)c(OC)c3)c(=O)[nH]2)cc1OC`, the GI50 with HOP-92 NSCLC, in the assay with NCI/ADR-RES ovarian, in the assay with RPMI-8226 leukemia, with T-47D breast, with SF-295 CNS and in the assay on SW-620 colon was more than 100 µM in each case. Further, the GI50 in the assay on HCC-2998 colon, in the assay with SF-539 CNS, in the assay on MDA-MB-231 breast and in the assay on M14 melanoma was more than 100 µM throughout. Also, the TGI in the assay on HOP-92 NSCLC, in the assay with NCI/ADR-RES ovarian, in the assay with RPMI-8226 leukemia, in the assay with T-47D breast, in the assay with SF-295 CNS and with SW-620 colon was more than 100 µM each time. For the same molecule, the TGI with HCC-2998 colon, with SF-539 CNS, with MDA-MB-231 breast and with M14 melanoma was more than 100 µM throughout.

`C=CC(=O)N1CC[C@H](n2nc(C#Cc3cc(OC)cc(OC)c3)c3c(N)ncnc32)C1`: the GI50 in the assay on HOP-92 NSCLC was 1.84 µM; in the assay on NCI/ADR-RES ovarian it was 12.7 µM; in the assay with RPMI-8226 leukemia it was 2.45 µM; in the assay with T-47D breast, 5.22 µM; in the assay with SF-295 CNS it was 15.5 µM; in the assay on SW-620 colon, 15 µM. Further, the GI50 is 17.2 µM with HCC-2998 colon, 2.6 µM in the assay on SF-539 CNS, 4.07 µM in the assay with MDA-MB-231 breast and 15.3 µM in the assay on M14 melanoma. Besides, the TGI in the assay on HOP-92 NSCLC is 9.23 µM; in the assay with NCI/ADR-RES ovarian, more than 100 µM; with RPMI-8226 leukemia, 33.3 µM; with T-47D breast it was more than 100 µM; in the assay on SF-295 CNS, more than 100 µM; in the assay with SW-620 colon, more than 100 µM. Further, the TGI was more than 100 µM in the assay on HCC-2998 colon, 65.9 µM in the assay on SF-539 CNS, more than 100 µM in the assay with MDA-MB-231 breast and more than 100 µM in the assay with M14 melanoma.

On to `Nc1ncn([C@H]2C[C@H](OP(=O)(O)OC[C@H]3O[C@@H](n4cnc5c(=O)[nH]c(N)nc54)C[C@@H]3O)[C@@H](CO)O2)c(=O)n1`, for which the GI50 in the assay on HOP-92 NSCLC, in the assay with NCI/ADR-RES ovarian, in the assay with RPMI-8226 leukemia, in the assay with T-47D breast, with SF-295 CNS and in the assay with SW-620 colon was more than 100 µM throughout. Also, the GI50 with HCC-2998 colon, in the assay with SF-539 CNS, with MDA-MB-231 breast and in the assay with M14 melanoma was more than 100 µM in each case. For the same molecule, the TGI in the assay on HOP-92 NSCLC, in the assay on NCI/ADR-RES ovarian, with RPMI-8226 leukemia, with T-47D breast, in the assay with SF-295 CNS and with SW-620 colon was more than 100 µM in each case. Further, the TGI with HCC-2998 colon, with SF-539 CNS, in the assay with MDA-MB-231 breast and in the assay on M14 melanoma was more than 100 µM throughout.

As to `Nc1nn(C(=O)Nc2c(F)cccc2F)c2ccccc12`, the GI50 in the assay with HOP-92 NSCLC was 17.3 µM; in the assay on NCI/ADR-RES ovarian it was 56.5 µM; in the assay on RPMI-8226 leukemia, 16.1 µM; in the assay on T-47D breast it was 68.7 µM; in the assay on SF-295 CNS, 54.8 µM; in the assay with SW-620 colon it was 38.3 µM. Besides, the GI50 in the assay with HCC-2998 colon was 95.8 µM; in the assay with SF-539 CNS, 31.4 µM; with MDA-MB-231 breast, 98.7 µM; with M14 melanoma, 74.6 µM. Further, the TGI with HOP-92 NSCLC, in the assay with NCI/ADR-RES ovarian, in the assay with RPMI-8226 leukemia, in the assay on T-47D breast, in the assay with SF-295 CNS and in the assay on SW-620 colon was more than 100 µM each time. Moreover, the TGI in the assay on HCC-2998 colon, in the assay with SF-539 CNS, in the assay on MDA-MB-231 breast and with M14 melanoma was more than 100 µM each time.

In the case of `CC(C)Cc1ccc(C(C)C(=O)NCc2ccc(Cn3c(=O)sn(CCCI)c3=O)cc2)cc1` (stereo not given), the 50% growth inhibitory concentration (GI50) in the assay on HOP-92 NSCLC was 0.308 µM; in the assay with NCI/ADR-RES ovarian, 1.35 µM; in the assay with RPMI-8226 leukemia, 0.34 µM; in the assay with T-47D breast it was 1.64 µM; in the assay with SF-295 CNS it was 1.56 µM; in the assay on SW-620 colon it was 0.259 µM. Also, the GI50 in the assay with HCC-2998 colon is 1.75 µM; in the assay with SF-539 CNS, 0.804 µM; in the assay with MDA-MB-231 breast it was 1.13 µM; in the assay on M14 melanoma it was 0.429 µM. For the same molecule, the TGI with HOP-92 NSCLC turned out to be 1.56 µM; in the assay on NCI/ADR-RES ovarian, 5.19 µM; in the assay on RPMI-8226 leukemia, 2.2 µM; in the assay on T-47D breast, 5.93 µM; in the assay with SF-295 CNS, 3.08 µM; in the assay on SW-620 colon, 0.75 µM. Besides, the TGI in the assay with HCC-2998 colon came out at 3.38 µM; in the assay on SF-539 CNS, 2.08 µM; with MDA-MB-231 breast, 2.42 µM; with M14 melanoma it was 1.34 µM.

As for `CC1Cc2ccccc2N1C(=O)Cc1nc(N2CCOCC2)cc(=O)[nH]1` (stereo not given), the GI50 in the assay on HOP-92 NSCLC was 0.915 µM and 3.04 µM; in the assay on NCI/ADR-RES ovarian it was 64.5 µM and > 88.6 µM; in the assay with RPMI-8226 leukemia, 22.9 µM and > 58.3 µM; in the assay on T-47D breast it was 1.6 µM and 3.73 µM; with SF-295 CNS it was 3.15 µM and 6.95 µM; in the assay on SW-620 colon, 27.2 µM and 72.5 µM. Also, the GI50 in the assay with HCC-2998 colon is 18.1 µM and 28.6 µM; in the assay on SF-539 CNS, 8.79 µM and 22.4 µM; with MDA-MB-231 breast, 26.4 µM and 31.3 µM; in the assay on M14 melanoma it was 13.8 µM and 27 µM. Further, the TGI in the assay on HOP-92 NSCLC was 46.1 µM and > 75.2 µM; in the assay on NCI/ADR-RES ovarian, more than 100 µM; in the assay with RPMI-8226 leukemia, more than 100 µM; in the assay with T-47D breast, 42.6 µM and 99.7 µM; in the assay with SF-295 CNS, > 100 µM and 97.7 µM; with SW-620 colon, more than 100 µM. Besides, the TGI in the assay with HCC-2998 colon, in the assay with SF-539 CNS, in the assay with MDA-MB-231 breast and in the assay with M14 melanoma was more than 100 µM each time.

As to `COc1cc2c(c(OC)c1OC)-c1c(c3ccc([N+](=O)[O-])cc3c(=O)n1CCCN)C2=O`, the GI50 with HOP-92 NSCLC was 7.21 µM; in the assay with NCI/ADR-RES ovarian, 5.49 µM; in the assay with RPMI-8226 leukemia, 1.29 µM; with T-47D breast it was 1.88 µM; in the assay with SF-295 CNS it was 1.86 µM; in the assay with SW-620 colon it was 1.03 µM. In addition, the GI50 was 9.12 µM with HCC-2998 colon, 1.38 µM with SF-539 CNS, 0.908 µM with MDA-MB-231 breast and 0.835 µM in the assay on M14 melanoma. For the same molecule, the TGI amounted to 15.8 µM with HOP-92 NSCLC; 15.6 µM in the assay on NCI/ADR-RES ovarian; 3.75 µM with RPMI-8226 leukemia; 7.85 µM with T-47D breast; 7.82 µM in the assay on SF-295 CNS; 2.35 µM in the assay with SW-620 colon. Besides, the TGI in the assay with HCC-2998 colon was 17.6 µM; with SF-539 CNS, 3.28 µM; with MDA-MB-231 breast, 1.74 µM; with M14 melanoma, 1.53 µM.
